# Calls of active or inactive are those of the source. No cut-off for these calls is given here.
# Key:
# [1] = system: Candida albicans; assay: Antifungal activity against fluconazole resistant Candida albicans strain 17# assessed as fungal growth inhibition measured after 72 hrs by CLSI protocol based liquid medium dilution method; type: functional
# [2] = system: Candida albicans; assay: Induction of apoptosis in Candida albicans ATCC SC5314 cells assessed as late apoptotic cells at 8 ug/ml incubated for 72 hrs by Annexin V-FITC/PI staining based flow cytometry method (reference value: 0.12%); type: functional; conditions: dose 8 µg/ml
# [3] = system: Candida albicans; assay: Induction of apoptosis in Candida albicans ATCC SC5314 cells assessed as necrotic cells at 8 ug/ml incubated for 72 hrs by Annexin V-FITC/PI staining based flow cytometry method (reference value: 3.76%); type: functional; conditions: dose 8 µg/ml
# [4] = system: Candida albicans; assay: microbe, parasite or virus in culture; conditions: Candida albicans, 901, 72 h
# Description: Antifungal activity against fluconazole resistant Candida albicans strain 901 assessed as fungal growth inhibition measured after 72 hrs in presence of miconazole by CLSI protocol based liquid medium dilution method
# [5] = system: Candida albicans; assay: Antifungal activity against Candida albicans ATCC SC5314 assessed as decrease in ergosterol content at 4 ug/ml incubated for 48 hrs by LC-MS analysis (reference value: 90.6%); type: functional; design: scale not given: the % may be the effect or the level left; conditions: dose 4 µg/ml
# [6] = system: Candida albicans; assay: Antifungal activity against Candida albicans ATCC 10231 assessed as fungal growth inhibition measured after 72 hrs by CLSI protocol based liquid medium dilution method; type: functional
# [7] = system: Candida tropicalis; assay: Antifungal activity against Candida tropicalis ATCC 1369 assessed as fungal growth inhibition measured after 72 hrs by CLSI protocol based liquid medium dilution method; type: functional
# [8] = system: Candida albicans; assay: Antifungal activity against fluconazole resistant Candida albicans strain CaR assessed as fungal growth inhibition measured after 72 hrs by CLSI protocol based liquid medium dilution method; type: functional
# [9] = system: Candida albicans; assay: Antifungal activity against Candida albicans ATCC SC5314 assessed as change in lanosterol level at 4 ug/ml incubated for 48 hrs by LC-MS analysis (reference value: 3.7%); type: functional; conditions: dose 4 µg/ml
# [10] = system: Candida albicans; assay: microbe, parasite or virus in culture; conditions: Candida albicans, 103, 72 h
# Description: Antifungal activity against fluconazole resistant Candida albicans strain 103 assessed as fungal growth inhibition measured after 72 hrs in presence of miconazole by CLSI protocol based liquid medium dilution method
# [11] = system: Candida albicans; assay: Antifungal activity against fluconazole resistant Candida albicans strain 103 assessed as fungal growth inhibition measured after 72 hrs by CLSI protocol based liquid medium dilution method; type: functional
# [12] = system: Pichia kudriavzevii; assay: Antifungal activity against Candida krusei ATCC 6258 assessed as fungal growth inhibition measured after 72 hrs by CLSI protocol based liquid medium dilution method; type: functional
# [13] = system: Candida albicans; assay: Induction of apoptosis in Candida albicans ATCC SC5314 cells assessed as early apoptotic cells at 8 ug/ml incubated for 72 hrs by Annexin V-FITC/PI staining based flow cytometry method (reference value: 0.56%); type: functional; conditions: dose 8 µg/ml
# [14] = system: Candida albicans; assay: Antifungal activity against fluconazole resistant Candida albicans strain 901 assessed as fungal growth inhibition measured after 72 hrs by CLSI protocol based liquid medium dilution method; type: functional
# [15] = system: Aspergillus fumigatus; assay: Antifungal activity against Aspergillus fumigatus KM8001 assessed as fungal growth inhibition measured after 72 hrs by CLSI protocol based liquid medium dilution method; type: functional
# [16] = system: Candida albicans; assay: Antifungal activity against Candida albicans ATCC SC5314 assessed as change in eburicol level at 4 ug/ml incubated for 48 hrs by LC-MS analysis (reference value: 1.4%); type: functional; conditions: dose 4 µg/ml
# [17] = system: Candida albicans; assay: Induction of apoptosis in Candida albicans ATCC SC5314 cells assessed as live cells at 8 ug/ml incubated for 72 hrs by Annexin V-FITC/PI staining based flow cytometry method (reference value: 95.56%); type: functional; conditions: dose 8 µg/ml
# [18] = system: Nakaseomyces glabratus; assay: Antifungal activity against Candida glabrata ATCC 0001 assessed as fungal growth inhibition measured after 72 hrs by CLSI protocol based liquid medium dilution method; type: functional
# [19] = target: T1, Squalene epoxidase ERG1 (Candida albicans, UniProt Q92206); assay: Inhibition of SE in Candida albicans ATCC SC5314 incubated for 30 mins using squalene as substrate in presence of NADPH by spectrophotometer analysis
# T1 sequence (Q92206 whole entry): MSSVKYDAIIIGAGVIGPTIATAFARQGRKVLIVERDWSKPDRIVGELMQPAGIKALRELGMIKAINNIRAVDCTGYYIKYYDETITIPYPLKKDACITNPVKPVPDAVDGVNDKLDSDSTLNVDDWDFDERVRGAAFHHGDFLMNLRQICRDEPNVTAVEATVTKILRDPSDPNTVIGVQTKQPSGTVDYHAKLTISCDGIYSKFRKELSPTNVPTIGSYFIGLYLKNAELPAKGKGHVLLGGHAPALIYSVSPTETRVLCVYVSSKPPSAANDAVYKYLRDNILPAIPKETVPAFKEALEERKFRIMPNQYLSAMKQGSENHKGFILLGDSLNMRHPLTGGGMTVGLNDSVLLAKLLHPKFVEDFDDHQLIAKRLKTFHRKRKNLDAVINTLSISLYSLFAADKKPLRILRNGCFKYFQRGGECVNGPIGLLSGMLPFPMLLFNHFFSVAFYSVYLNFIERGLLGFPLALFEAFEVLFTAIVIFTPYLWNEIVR
# [20] = system: Candida albicans; assay: Antifungal activity against Candida albicans ATCC SC5314 assessed as change in squalene level at 4 ug/ml incubated for 48 hrs by LC-MS analysis; type: functional; conditions: dose 4 µg/ml
# [21] = system: Candida albicans; assay: Antifungal activity against Candida albicans ATCC SC5314 assessed as change in unknown sterol level at 4 ug/ml incubated for 48 hrs by LC-MS analysis (reference value: 4.3%); type: functional; conditions: dose 4 µg/ml
# [22] = system: Candida albicans; assay: Antifungal activity against fluconazole resistant Candida albicans strain 17# assessed as fungal growth inhibition measured after 72 hrs in presence of miconazole by CLSI protocol based liquid medium dilution method
# [23] = system: Candida albicans; assay: Antifungal activity against fluconazole resistant Candida albicans strain CaR assessed as fungal growth inhibition measured after 72 hrs in presence of miconazole by CLSI protocol based liquid medium dilution method
# [24] = system: Candida albicans; assay: microbe, parasite or virus in culture; conditions: Candida albicans, 904, 72 h
# Description: Antifungal activity against fluconazole resistant Candida albicans strain 904 assessed as fungal growth inhibition measured after 72 hrs in presence of miconazole by CLSI protocol based liquid medium dilution method
# [25] = system: Candida albicans; assay: Antifungal activity against fluconazole resistant Candida albicans strain 904 assessed as fungal growth inhibition measured after 72 hrs by CLSI protocol based liquid medium dilution method; type: functional
# [26] = system: Candida albicans; assay: Antifungal activity against fluconazole resistant Candida albicans strain 901 assessed as decrease in fungal cell density in presence naftifine of by fluorescence microscopy; type: functional, organism-based
# [27] = system: Candida albicans; assay: Antifungal activity against fluconazole resistant Candida albicans strain 904 assessed as fungal growth inhibition measured after 72 hrs in presence of naftifine by CLSI protocol based liquid medium dilution method; type: functional
# [28] = system: Candida albicans; assay: Antifungal activity against fluconazole resistant Candida albicans strain CaR assessed as fungal growth inhibition measured after 72 hrs in presence of naftifine by CLSI protocol based liquid medium dilution method; type: functional
# [29] = system: Candida albicans; assay: Antifungal activity against fluconazole resistant Candida albicans strain 17# assessed as fungal growth inhibition measured after 72 hrs in presence of naftifine by CLSI protocol based liquid medium dilution method; type: functional
# [30] = system: Candida albicans; assay: Antifungal activity against fluconazole resistant Candida albicans strain 901 assessed as fungal growth inhibition measured after 72 hrs in presence of naftifine by CLSI protocol based liquid medium dilution method; type: functional
# [31] = Drug uptake in fluconazole resistant Candida albicans strain 901 in presence of naftifine by fluorescence microscopy; type: ADME
# [32] = system: Candida albicans; assay: Antifungal activity against fluconazole resistant Candida albicans strain 103 assessed as fungal growth inhibition measured after 72 hrs in presence of naftifine by CLSI protocol based liquid medium dilution method; type: functional
# [33] = target: Lanosterol 14-alpha demethylase (Candida albicans (strain SC5314 / ATCC MYA-2876) (Yeast), UniProt P10613); assay: Inhibition of CYP51 in Candida albicans ATCC SC5314 incubated for 30 mins using eburicol as substrate in presence of NADPH by HPLC analysis
# Chain of Lanosterol 14-alpha demethylase (P10613 whole entry): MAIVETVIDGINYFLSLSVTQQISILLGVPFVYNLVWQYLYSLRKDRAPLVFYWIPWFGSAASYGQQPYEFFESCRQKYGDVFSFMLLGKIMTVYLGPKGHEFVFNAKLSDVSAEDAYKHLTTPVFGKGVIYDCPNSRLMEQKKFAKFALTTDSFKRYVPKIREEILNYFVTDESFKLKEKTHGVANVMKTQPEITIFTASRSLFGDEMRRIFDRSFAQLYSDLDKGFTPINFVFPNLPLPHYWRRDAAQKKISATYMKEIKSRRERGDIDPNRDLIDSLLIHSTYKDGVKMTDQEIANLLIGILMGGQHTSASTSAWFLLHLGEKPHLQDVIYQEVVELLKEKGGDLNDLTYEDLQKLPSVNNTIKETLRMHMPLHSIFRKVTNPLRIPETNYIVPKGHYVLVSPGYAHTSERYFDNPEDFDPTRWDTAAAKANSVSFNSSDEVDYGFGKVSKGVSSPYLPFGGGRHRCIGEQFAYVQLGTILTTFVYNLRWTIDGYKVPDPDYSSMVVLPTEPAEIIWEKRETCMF
# [34] = Toxicity in mouse infected with Candida albicans ATCC SC5314 assessed as pathological changes in heart at 4 mg/kg, ip administered ever other day for 12 days by hematoxylin and eosin staining based histopathological analysis; type: organism-based; conditions: in vivo, 288 h, time 12 day
# [35] = system: Candida albicans; assay: Antifungal activity against fluconazole resistant Candida albicans strain 901 assessed as decrease in fungal cell density at 4 ug/ml by fluorescence microscopy; type: functional, organism-based; conditions: dose 4.0 µg/ml
# [36] = system: Mus musculus; assay: In vivo antifungal activity against Candida albicans ATCC SC5314 infected mouse model assessed as reduction in nuclear aggregation at 4 mg/kg, ip administered ever other day for 12 days by hematoxyin-eosin staining based microscopic analysis; type: functional, organism-based; conditions: time 12.0 day
# [37] = Hepatotoxicity in mouse infected with Candida albicans ATCC SC5314 assessed as change in plasma AST level at 4 mg/kg, ip administered ever other day for 12 days; type: toxicity, organism-based; conditions: in vivo, 288 h, time 12 day
# [38] = Drug uptake in fluconazole resistant Candida albicans strain 901 at 4 ug/ml by fluorescence microscopy; type: ADME; conditions: dose 4 µg/ml
# [39] = Toxicity in mouse infected with Candida albicans ATCC SC5314 assessed as pathological changes in liver at 4 mg/kg, ip administered ever other day for 12 days by hematoxylin and eosin staining based histopathological analysis; type: organism-based; conditions: in vivo, 288 h, time 12 day
# [40] = Toxicity in mouse infected with Candida albicans ATCC SC5314 assessed as pathological changes in spleen at 4 mg/kg, ip administered ever other day for 12 days by hematoxylin and eosin staining based histopathological analysis; type: organism-based; conditions: in vivo, 288 h, time 12 day
# [41] = Toxicity in mouse infected with Candida albicans ATCC SC5314 assessed as pathological changes in lung at 4 mg/kg, ip administered ever other day for 12 days by hematoxylin and eosin staining based histopathological analysis; type: organism-based; conditions: in vivo, 288 h, time 12 day
# [42] = system: Mus musculus; assay: In vivo antifungal activity against Candida albicans ATCC SC5314 infected mouse model assessed as regular arrangement of intercellular space at 4 mg/kg, ip administered ever other day for 12 days by hematoxyin-eosin staining based microscopic analysis; type: functional, organism-based; conditions: time 12.0 day
# [43] = Toxicity in mouse infected with Candida albicans ATCC SC5314 assessed as pathological changes in kidney at 4 mg/kg, ip administered ever other day for 12 days by hematoxylin and eosin staining based histopathological analysis; type: organism-based; conditions: in vivo, 288 h, time 12 day
# [44] = system: Mus musculus; assay: In vivo antifungal activity against Candida albicans ATCC SC5314 infected mouse assessed as reduction in fungal infection region at 4 mg/kg, ip administered ever other day for 12 days; type: functional, organism-based; conditions: time 12.0 day
# [45] = system: Mus musculus; assay: In vivo antifungal activity against Candida albicans ATCC SC5314 infected mouse assessed as increase in body weight at 4 mg/kg, ip administered ever other day for 12 days; type: functional, organism-based; conditions: time 12.0 day
# [46] = system: Mus musculus; assay: In vivo antifungal activity against Candida albicans ATCC SC5314 infected mouse assessed as regular arrangement of endothelial tissue at 4 mg/kg, ip administered ever other day for 12 days by hematoxyin-eosin staining based microscopic analysis; type: functional, organism-based; conditions: time 12.0 day
# [47] = Nephrotoxicity in mouse infected with Candida albicans ATCC SC5314 assessed as change in plasma BUN level at 4 mg/kg, ip administered ever other day for 12 days; type: toxicity, organism-based; conditions: in vivo, 288 h, time 12 day
# [48] = Hepatotoxicity in mouse infected with Candida albicans ATCC SC5314 assessed as change in plasma ALT level at 4 mg/kg, ip administered ever other day for 12 days; type: toxicity, organism-based; conditions: in vivo, 288 h, time 12 day
# [49] = system: Mus musculus; assay: In vivo antifungal activity against Candida albicans ATCC SC5314 infected mouse model assessed as disappearance of pathogenic fungi at 4 mg/kg, ip administered ever other day for 12 days by hematoxyin-eosin staining based microscopic analysis; type: functional, organism-based; conditions: time 12.0 day
SMILES,MIC50 [1] [µg/mL],Activity [2] [%],Activity [3] [%],Activity [5] [%],MIC50 [6] [µg/mL],MIC50 [7] [µg/mL],MIC50 [8] [µg/mL],Activity [9] [%],MIC50 [11] [µg/mL],MIC50 [12] [µg/mL],Activity [13] [%],MIC50 [14] [µg/mL],MIC50 [15] [µg/mL],Activity [16] [%],Activity [17] [%],MIC50 [18] [µg/mL],IC50 [19] [nM],Activity [20] [%],Activity [21] [%],MIC50 [25] [µg/mL],also measured
CN(C/C=C/c1ccccc1)Cc1cccc2ccccc12 [NAFTIFINE],2,1.99,35.85,35.1,0.5,0.5,4,2.6,4,0.5,0.56,2,4,3.7,61.6,1,317,52.8,5.8,4,MIC50 [4]: 2 µg/mL; MIC50 [10]: 2 µg/mL; MIC50 [22]: 1 µg/mL; MIC50 [23]: 1 µg/mL; MIC50 [24]: 1 µg/mL
Clc1ccc(COC(Cn2ccnc2)c2ccc(Cl)cc2Cl)c(Cl)c1 (centres undefined) [MICONAZOLE],–,–,–,–,–,–,–,–,–,–,–,–,–,–,–,–,–,–,–,–,Activity [26]: Active; MIC50 [27]: 1 µg/mL; MIC50 [28]: 1 µg/mL; MIC50 [29]: 1 µg/mL; MIC50 [30]: 2 µg/mL; Drug uptake [31]: Active; MIC50 [32]: 2 µg/mL
O=C(N[C@H](Cc1ccccc1)Cn1cncn1)c1ccc2c(c1)OCCO2,2,1.62,45.83,24.7,0.25,0.125,1,18.5,1,0.125,0.38,1,2,35.3,52.17,0.25,823,15.3,6.2,2,IC50 [33]: 356 nM; Activity [34]: Non-Toxic; Activity [35]: Active; Activity [36]: Active; Activity [37]: 83 IU/L; Drug uptake [38]: Active; Activity [39]: Non-Toxic; Activity [40]: Non-Toxic; Activity [41]: Non-Toxic; Activity [42]: Active; Activity [43]: Non-Toxic; Activity [44]: Active; Activity [45]: Active; Activity [46]: Active; Activity [47]: 13.1 mmol/L; Activity [48]: 54.6 IU/L; Activity [49]: Active
